Structures are written as SMILES.

Data on six compounds can be found in patent US20100291009A1, “PREPARATION COMPRISING CHROMAN-2-ONE DERIVATIVES” (Merck Patent Gesellschaft Mit Beschrankter Haftung, priority 2008, published 2010).

The target in this test is tyrosinase from fungi. As to the kind of experiment: Tyrosinase assay (L-DOPA as substrate). The settings on record: tyrosinase from fungi (16U), phosphate buffer pH 6.8, 25° C., optical density at 470 nm; for IC50: read-out: IC50 (concentration of the test compound at which 50% of the tyrosinase activity is inhibited). It is filed as biochemical. How it is done: The action of the compounds I or Ia as skin lighteners is tested through their ability to inhibit the enzyme tyrosinase and thus to suppress melanin synthesis.
The inhibiting action of the compounds of the formula I or Ia against tyrosinase is assessed using tyrosinase from fungi and L-DOPA as substrate.
The compounds, as described in Examples 1 to 3 and the comparative compounds of Examples 10 and 11, and L-dopa are pre-incubated for 10 minutes at 25° C. in phosphate buffer (pH 6.8), and tyrosinase from fungi (16U) (Fluka) is subsequently added. The optical density of the samples is measured at 470 nm against a negative control (without active compound). Kojic acid is likewise tested as tyrosinase reference, i.e. positive control.
The results are shown in the following table, expressed in the IC50 value (the concentration of the test compound at which 50% of the tyrosinase activity is inhibited).

Regarding `Cc1c(C)c2c(c(C)c1O)C(C)(C)CC(=O)O2` [Example 11, 6-hydroxy-4,4,5,7,8-pentamethylchroman-2-one], the “IC50 (concentration of the test compound at which 50% of the tyrosinase activity is inhibited)” value is recorded as “No inhibition”.

Take `CCc1cc2c(cc1O)OC(=O)CC2` [6-Ethyl-7-hydroxychroman-2-one, 6-ethyl-7-hydroxychroman-2-one]: the IC50 is 336 µM.

Take `O=c1cc(CO)occ1O` [Kojic acid]: the IC50 was determined as 12 µM.

Take `CCCCCCc1cc2c(cc1O)OC(=O)CC2` [6-Hexyl-7-hydroxychroman-2-one, 6-hexyl-7-hydroxychroman-2-one]: the IC50 came out at 25 µM.

In the case of `Cc1cc(O)c(C)c2c1OC(=O)CC2(C)C` [Example 10, 6-hydroxy-4,4,5,8-tetramethylchroman-2-one], the “IC50 (concentration of the test compound at which 50% of the tyrosinase activity is inhibited)” value is “No inhibition”.

Turning to `O=C1CCc2ccc(O)cc2O1` [7-Hydroxychroman-2-one, 7-hydroxychroman-2-one], the IC50 is 1000 µM.
